These results are taken from PubChem BioAssay (NCI).

Among the test systems are ACHN renal; IGROV1 ovarian; MCF7 breast; MDA-MB-231 breast; NCI-H522 lung; RXF 393 renal; SF-539 CNS; SNB-19 CNS; SR leukemia; T-47D breast.
Assay in all cases: growth of human tumour cells (NCI), 48 h

Values joined by “and” are separate entries in the source; they are usually repeats but may differ in a detail not shown here. Identical values can stand only once.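 Exposure lasted 48 hours, with cells grown in 96-well plates and compounds tested at five concentrations. GI50 = concentration required for 50% inhibition of growth. Definition used: TGI = concentration required for complete inhibition of growth.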

`C=C1CC2(OC1=O)C(=O)N(CCCCCCCN1C(=O)C3(CC(=C)C(=O)O3)c3ccccc31)c1ccccc12` (centres undefined): the GI50 with ACHN renal was 1130 nM; in the test on IGROV1 ovarian it was 966 nM; with MCF7 breast it was 1350 nM; with MDA-MB-231 breast it was 1180 nM; with NCI-H522 lung, 820 nM; in the test with RXF 393 renal, 860 nM. Further, the GI50 with SF-539 CNS was 1260 nM; in the test with SNB-19 CNS, 8520 nM; with SR leukemia, 475 nM; with T-47D breast, 1170 nM. Further, the TGI came out at 3070 nM with ACHN renal; 2290 nM in the test with IGROV1 ovarian; 6900 nM in the test with MCF7 breast; 3490 nM in the test on MDA-MB-231 breast; 1850 nM with NCI-H522 lung; 2060 nM with RXF 393 renal. The TGI in the test with SF-539 CNS was found to be 4270 nM; with SNB-19 CNS, 22000 nM; in the test with SR leukemia it was 3580 nM; with T-47D breast, 5020 nM.

With `C[C@@H]1C[C@@H](O)[C@]2(O)O[C@@H]3C[C@@]4(C=O)[C@@H](CC[C@@H]5[C@@H]4CC[C@]4(C)[C@@H](C6=CC(=O)OC6)CC[C@]54O)C[C@H]3O[C@@H]2O1`, the GI50 with ACHN renal was 6.92 nM and 5 nM; in the test with IGROV1 ovarian, 33 nM and 7.27 nM; in the test on NCI-H522 lung, 7.51 nM; in the test with SF-539 CNS, 15 nM and 5 nM; in the test on SNB-19 CNS, 101 nM and 19.7 nM; in the test with SR leukemia it was 13 nM. Also, the TGI was 47.4 nM and 175 nM and 51.6 nM with IGROV1 ovarian; 160 nM in the test with MCF7 breast; 236 nM with MDA-MB-231 breast; 59.9 nM with RXF 393 renal; 14.6 nM and 37 nM and 14.4 nM in the test on SF-539 CNS; 145 nM and 217 nM and 184 nM in the test on SNB-19 CNS. Also, the TGI in the test with SR leukemia was 12.8 nM and 31.7 nM; in the test with T-47D breast, 890 nM.

With `CCN(CC)CCOc1nc2ccc(OC)cc2c2c1-c1ccc(OC)cc1C2=O`, the GI50 with ACHN renal was 476 nM; in the test on IGROV1 ovarian it was 417 nM; in the test with MCF7 breast, 367 nM; in the test with MDA-MB-231 breast, 1540 nM; in the test with NCI-H522 lung, 394 nM; with RXF 393 renal it was 1210 nM. The GI50 in the test on SF-539 CNS is 1240 nM; with SNB-19 CNS, 922 nM; with SR leukemia it was 344 nM; with T-47D breast it was 11000 nM. Besides, the TGI came out at 1790 nM with ACHN renal; 1890 nM in the test on IGROV1 ovarian; 1530 nM in the test with MCF7 breast; 4100 nM in the test on MDA-MB-231 breast; 1810 nM in the test with NCI-H522 lung; 2550 nM with RXF 393 renal. The TGI in the test on SF-539 CNS was 2950 nM; with SNB-19 CNS, 3190 nM; in the test with SR leukemia, 1690 nM; with T-47D breast it was 26300 nM.

For the compound `CNc1ccc2nc3ccc(=[N+](C)C)cc-3sc2c1`, the GI50 in the test on ACHN renal was 815 nM and 1020 nM; in the test on IGROV1 ovarian it was 2360 nM and 1280 nM; in the test with MCF7 breast, 801 nM and 284 nM; with MDA-MB-231 breast, 426 nM and 345 nM; in the test on NCI-H522 lung, 291 nM and 465 nM; with RXF 393 renal, 3530 nM and 5320 nM. Moreover, the GI50 in the test on SF-539 CNS is 383 nM and 278 nM; with SNB-19 CNS, 747 nM and 324 nM; with SR leukemia it was 635 nM and 2220 nM; with T-47D breast, 1860 nM and 489 nM. The TGI was 10600 nM and 4230 nM in the test on ACHN renal; 10500 nM and 4060 nM with IGROV1 ovarian; 6840 nM and 3620 nM in the test on MCF7 breast; 5590 nM and 3630 nM in the test with MDA-MB-231 breast; 1330 nM and 3790 nM in the test with NCI-H522 lung; 11400 nM and 14300 nM in the test on RXF 393 renal. The TGI was 2650 nM and 1730 nM in the test with SF-539 CNS; 8830 nM and 6110 nM in the test with SNB-19 CNS; 12100 nM and > 100000 nM in the test on SR leukemia; 8900 nM and 12500 nM in the test on T-47D breast.

As to `CC(=O)Nc1ccc2c(c1)c(C1=C(c3cn(C)c4ccccc34)C(=O)NC1=O)cn2C`, the GI50 in the test with ACHN renal is 1570 nM; in the test on IGROV1 ovarian, 16400 nM; in the test on MCF7 breast, 852 nM; in the test on MDA-MB-231 breast, 5000 nM; with NCI-H522 lung, 702 nM; in the test on RXF 393 renal, 608 nM. For the same compound, the GI50 in the test with SF-539 CNS is 671 nM; in the test on SNB-19 CNS, above 18200 nM; in the test with SR leukemia, 675 nM; in the test on T-47D breast it was 1660 nM. The TGI is above 25000 nM with ACHN renal; above 25000 nM with IGROV1 ovarian; above 15700 nM in the test on MCF7 breast; above 25000 nM in the test on MDA-MB-231 breast; above 6590 nM in the test with NCI-H522 lung; 2680 nM in the test on RXF 393 renal. The TGI was 1970 nM with SF-539 CNS, above 25000 nM in the test with SNB-19 CNS, above 17000 nM in the test with SR leukemia and above 25000 nM with T-47D breast.

In the case of `COc1ccc(C(=O)/C(Br)=C/C(=O)O)cc1`, the GI50 was 78800 nM in the test with ACHN renal; 121000 nM and 144000 nM with IGROV1 ovarian; 7410 nM with MCF7 breast; 53700 nM in the test on MDA-MB-231 breast; 13300 nM with NCI-H522 lung; 6800 nM and 15100 nM in the test on RXF 393 renal. Moreover, the GI50 in the test on SF-539 CNS is 9180 nM and 27300 nM; with SNB-19 CNS it was 56300 nM; in the test with SR leukemia, 19100 nM; in the test with T-47D breast it was 15700 nM. In addition, the TGI in the test with ACHN renal was 293000 nM and 235000 nM; in the test on IGROV1 ovarian, 321000 nM and 461000 nM; in the test on MCF7 breast it was 44500 nM and 59900 nM; with MDA-MB-231 breast it was 84000 nM and 115000 nM; with NCI-H522 lung it was 50400 nM and 22900 nM; in the test on RXF 393 renal it was 19400 nM and 50000 nM. Also, the TGI in the test with SF-539 CNS is 90700 nM and 87300 nM; in the test with SNB-19 CNS it was 188000 nM and 375000 nM; in the test with SR leukemia, > 86000 nM and 321000 nM; in the test with T-47D breast, 149000 nM and 260000 nM.
